This is an account of results in ChEMBL document CHEMBL1144820, “Bipinnatins K-Q, minor cembrane-type diterpenes from the West Indian Gorgonian Pseudopterogorgia kallos: isolation, structure assignment, and evaluation of biological activities” (J Nat Prod, 2008).

Test [1] can be described thus: Inhibition of Aplysia californica nicotinic acetylcholine receptor.
Test [2] deals with Plasmodium falciparum. The experiment in a line: Antimicrobial activity against chloroquine-resistant Plasmodium falciparum. It counts as functional, organism-based.
The subject of test [3] is Mycobacterium tuberculosis. The experiment in a line: Antimicrobial activity against Mycobacterium tuberculosis H37Rv at 128 ug/ml. It counts as functional.
The subject of test [4] is MOLT-4. The experiment in a line: Cytotoxicity against human MOLT4 cells. The test is classed as functional.
In test [5] the test system is CCRF-CEM. The experiment in a line: Cytotoxicity against human CCRF-CEM cells. It counts as functional.
For test [6], the system named is SR. In words: Cytotoxicity against human SR cells. It counts as functional.
Test [7] concerns RPMI-8226. The experiment in a line: Cytotoxicity against human RPMI8226 cells. The test is classed as functional.

In general, IC50 refers to the midpoint of a concentration-inhibition curve. Low values mean greater potency in that assay, high ones weaker potency in that assay. In turn, `C=C(C=O)[C@H]1CC2=C(C(=O)OC)C=C(O2)[C@H]2O[C@]2(C)C[C@@H]2OC(=O)[C@]3(O[C@@H]23)[C@H](OC(C)=O)C1` [BIPINNATIN E] returned an IC50 in test [1] of 0.23 µM.

In general, inhibition refers to the relative decrease from the control value, in per cent. In test [2], `C=C(C(=O)OC)[C@@H]1C[C@@H](OC(C)=O)C2=C[C@H](C[C@@]3(C)O[C@@H]3[C@@]3(O)C=C(C)[C@](O)(O3)[C@H]1OC(C)=O)OC2=O` [BIPINNATIN M] came in with a concentration for half-maximal inhibition (IC50) of over 10 µg/mL. The inhibition at 128 µg/mL in test [3] was 20%.

In the case of `C=C(C)[C@@H]1CCC2=C[C@H](C[C@@]3(C)O[C@@H]3[C@]3(O)C=C(C)C(=O)[C@H]1O3)OC2=O` [BIPINNATIN N], the IC50 in test [2] is over 10 µg/mL.

Usually GI50 stands for the concentration that inhibits growth by half. `C=C(C=O)[C@H]1CC(=O)[C@@H](C(=O)OC)[C@@H]2O[C@@](C)(CC2=O)C[C@@H]2OC(=O)[C@]3(O[C@@H]23)[C@@H](OC(C)=O)C1` [BIPINNATIN Q]: the 50% growth inhibitory concentration (GI50) in test [4] was 4.2 µM; in test [5] it was 5.8 µM; in test [6] it was 2.6 µM; in test [7], 4.1 µM. The same molecule yielded an IC50 in test [2] of over 10 µg/mL.
